# According to PMC10458858, “Phytochemical Investigation of Lepionurus sylvestris Blume and Their Anti-Diabetes Effects via Anti-Alpha Glucosidase and Insulin Secretagogue Activities Plus Molecular Docking” (Pharmaceuticals, 2023):
# Several values for one entry are separate records, joined by “and”; a condition that tells them apart may be missing. Equal values may be shown once. Read-outs that look alike come from different tables or passages of the source.
# Columns and labels:
# alpha glucosidase enzyme = alpha glucosidase enzyme (Saccharomyces cerevisiae, UniProt P53341); assay: Anti-alpha glucosidase activity and mechanism of action (Michaelis–Menten, Lineweaver–Burk plots); assay type: biochemical; conditions: for inhibition at 400 µg/mL: read-out: Alpha Glucosidase Inhibition at 400 μg/mL
# Sequence of alpha glucosidase enzyme (P53341 whole entry): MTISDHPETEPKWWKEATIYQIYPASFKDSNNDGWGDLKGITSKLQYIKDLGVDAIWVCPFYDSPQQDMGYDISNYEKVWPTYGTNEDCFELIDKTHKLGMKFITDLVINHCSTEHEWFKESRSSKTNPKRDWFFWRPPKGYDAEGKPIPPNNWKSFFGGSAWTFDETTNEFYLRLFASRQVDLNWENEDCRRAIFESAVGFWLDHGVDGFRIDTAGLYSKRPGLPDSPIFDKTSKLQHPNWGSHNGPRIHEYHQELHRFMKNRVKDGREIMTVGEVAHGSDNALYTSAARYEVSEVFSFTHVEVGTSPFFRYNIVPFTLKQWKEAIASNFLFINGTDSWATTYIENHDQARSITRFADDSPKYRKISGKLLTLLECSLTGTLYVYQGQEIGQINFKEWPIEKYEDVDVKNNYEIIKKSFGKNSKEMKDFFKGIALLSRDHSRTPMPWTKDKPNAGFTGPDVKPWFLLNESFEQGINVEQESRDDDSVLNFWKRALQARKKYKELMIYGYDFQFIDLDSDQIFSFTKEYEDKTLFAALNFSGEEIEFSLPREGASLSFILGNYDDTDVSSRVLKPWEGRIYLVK
# Experimental: The anti-alpha glucosidase activity was determined by following Phoopha et al.’s method. […] The reaction was prepared using a phosphate buffer (pH 7.0), sample (was dissolved in DMSO), […] as substrate, and alpha glucosidase enzyme solution. The test was evaluated by measuring the velocity of the reaction per minute.
# in vitro [1] = assay type: cell-based, human; conditions: human; 25 µg/mL, 72 h, SRB; read-out: Cytotoxic Effect at 25 µg/mL (% Inhibition) ± SD, A549
# Experimental: (§1) The toxicity in human cancer cells was tested on a human breast carcinoma cell line (MCF-7), human cervix adenocarcinoma cell line (HeLa), and human lung carcinoma cell line (A549), which were compared to a human gingival fibroblast cell line (HGF) as the normal cells. These cells were cultured in DMEM liquid medium, supporting supplementary nutrients for cell culture. […] A sulforhodamine B assay was used to evaluate the cytotoxic effects of the samples, following a previous report [19]. In brief, the cancer cells were seeded into 96-well plates at 5 × 10^3 cells and incubated for 24 h. Later, we added the test samples at the final concentration of 25 μg/mL and left the experiment in the incubator for 72 h. After that, the cancer cells were fixed with cold 10% trichloro acetic acid for an hour and then we washed the acid with water. The dried plate was dyed with 0.4% SRB in 1% acetic acid for 30 min, and we washed the color with 1% acetic acid 4 times. The SRB color was dissolved in the cancer cells by adding 10 mM tris-base and measuring with a microplate reader at 492 nm.
# in vitro [2] = assay type: cell-based, human; conditions: human; 25 µg/mL, 72 h, SRB; read-out: Cytotoxic Effect at 25 µg/mL (% Inhibition) ± SD, MCF-7
# Experimental: as §1
# in vitro [3] = assay type: cell-based, human; conditions: human; 25 µg/mL, 72 h, SRB; read-out: Cytotoxic Effect at 25 µg/mL (% Inhibition) ± SD, HeLa
# Experimental: as §1
# in vitro [4] = conditions: human
# Experimental: as §1
# [5] = test system: insulin-secreting rat insulinoma (INS-1E) cells; assay: Insulin secretagogue activity (ELISA); assay type: cell-based; conditions: 100 μg/mL, 24 h
# Experimental: The experiment was slightly modified from previous reports. In brief, the insulin secretion was determined by testing insulin-secreting rat insulinoma (INS-1E) cells, supported by Prof. Dr. Michael Wink, Institute of Pharmacy and Molecular Biotechnology (IPMB), University of Heidelberg, Germany. The cells were cultured in RPMI-1640 liquid medium and supplementary nutrients for cell culture under the condition of a 37 °C humidified incubator containing 5% CO2. The cells were seeded into 24-well plates at 2 × 10^5 cells. Later, the cells were treated with glucose-free culture media to stop energy consumption in the cell metabolism. Afterward, the minimum concentration of glucose in RPMI-1640 was added to the samples for 24 h. Finally, the insulin secretion was measured for insulin releasing by ELISA technique.
# [6] = test system: A549 (human lung adenocarcinoma); assay: in vitro; assay type: cell-based
# Experimental: as §1
# [7] = test system: MCF-7 (human breast adenocarcinoma); assay: in vitro; assay type: cell-based
# Experimental: as §1
# [8] = test system: Hela (human cervix adenocarcinoma); assay: in vitro; assay type: cell-based
# Experimental: as §1
# [9] = test system: HGF (human gingival fibroblast)
# Experimental: as §1
# [10] = 400 μg/mL, isolated compounds panel
# [11] = control 2.5 mM glucose in RPMI-1640
compound,measurement,setting,value
"C[C@H]1O[C@H](O[C@H]2[C@H](O)[C@@H](O)[C@@H](O[C@H]3[C@H](O)[C@@H](O)C(O)O[C@@H]3CO)O[C@@H]2CO)[C@H](O)[C@@H](O)[C@@H]1N[C@H]1C=C(CO)[C@@H](O)[C@H](O)[C@H]1O (stereo partly drawn) [Acarbose, reference compound]",Alpha Glucosidase Inhibition at 400 μg/mL,alpha glucosidase enzyme; [10],62.14 ± 0.37
same,Alpha Glucosidase Inhibition at 2 mg/mL,"alpha glucosidase enzyme; 2 mg/mL, extracts panel",88.18 ± 0.53%
same,mechanism of enzyme inhibition,alpha glucosidase enzyme; Michaelis–Menten and Lineweaver–Burk kinetic plots,competitive
"CC[C@@]1(O)C(=O)OCc2c1cc1n(c2=O)Cc2cc3ccccc3nc2-1 [Camptothecin, reference compound]","inhibition at 72 h, 25 µg/mL",in vitro [1],87.7 ± 1.78%
same,"inhibition at 72 h, 25 µg/mL",in vitro [2],92.95 ± 0.33%
same,"inhibition at 72 h, 25 µg/mL",in vitro [3],85.2 ± 1.23%
same,"inhibition at 72 h, 25 µg/mL",in vitro [4],7.35 ± 1.34%
OCC(O)COCC(O)CO (stereo not drawn) [Diglycerol],inhibition at 400 µg/mL,alpha glucosidase enzyme; [10],6.23 ± 1.84%
same,total insulin secretion (insulin concentration),[5]; [11],102.2139 µg/L
same,total insulin secretion (insulin concentration),"[5]; control 2.5 mM glucose in RPMI-1640, listed as diglycerol",102.21 µg/L
CC(C)[C@@H](C)/C=C/[C@@H](C)[C@H]1CC[C@H]2C3=CC=C4C[C@@H](O)CC[C@]4(C)[C@H]3CC[C@]12C [Ergosterol],inhibition at 400 µg/mL,alpha glucosidase enzyme,18.6 ± 1.42%
same,total insulin secretion (insulin concentration),[5]; [11],102.4525 µg/L
same,total insulin secretion (insulin concentration),"[5]; control 2.5 mM glucose in RPMI-1640, listed as ergosterol",102.45 µg/L
"COc1ccc(Cl)cc1C(=O)NCCc1ccc(S(=O)(=O)NC(=O)NC2CCCCC2)cc1 [Glibenclamide, reference compound]",total insulin secretion (insulin concentration),[5]; [11],104.57 µg/L and 104.5722 µg/L
Cc1c(O)c(C(=O)CCc2ccccc2)c2oc(=O)cc(-c3ccccc3)c2c1O [Interruptin A],inhibition at 400 µg/mL,alpha glucosidase enzyme; [10],30.3 ± 1.17%
same,total insulin secretion (insulin concentration),[5]; [11],102.52 µg/L and 102.5228 µg/L
Cc1c(O)c(C(=O)C(O)Cc2ccccc2)c2oc(=O)cc(-c3ccccc3)c2c1O (stereo not drawn) [Interruptin C],inhibition at 400 µg/mL,alpha glucosidase enzyme; [10],58.2 ± 0.83%
same,total insulin secretion (insulin concentration),[5]; [11],102.0534 µg/L
same,total insulin secretion (insulin concentration),"[5]; control 2.5 mM glucose in RPMI-1640, listed as interruptin C",102.05 µg/L
"C=C1CC23COC(=O)C2=CCC[C@@H]3[C@@H]2C[C@H](c3ccoc3)OC(=O)[C@H]12 (stereo partly drawn) [The new diterpene (Lepionurodiolide), 15-16-epoxy-neo-cleoda-3,7(20),13(16),14-tetraene-12,17:18,19-diolide]",inhibition at 400 µg/mL,alpha glucosidase enzyme; [10],58.48 ± 0.48%
same,total insulin secretion (insulin concentration),"[5]; control 2.5 mM glucose in RPMI-1640, listed as The new diterpene",52.0566 µg/L
same,total insulin secretion (insulin concentration),"[5]; control 2.5 mM glucose in RPMI-1640, listed as the new diterpene compound",52.06 µg/L
Hexane,"Cytotoxic Effect at 25 µg/mL (% Inhibition) ± SD, A549",[6],15.40 ± 2.75%
same,"Cytotoxic Effect at 25 µg/mL (% Inhibition) ± SD, MCF-7",[7],53.54 ± 1.81%
same,"Cytotoxic Effect at 25 µg/mL (% Inhibition) ± SD, HeLa",[8],83.89 ± 4.31%
same,"Cytotoxic Effect at 25 µg/mL (% Inhibition) ± SD, HGF",[9],48.23 ± 2.96%
same,cytotoxicity category on HGF cells,[9],moderate (key: non-cytotoxic: cell viability above 80%; weak: 80–60%; moderate: 60–40%; strong: below 40%)
